From US9453226B2, “Protection of cells from Alu-RNA-induced degeneration and inhibitors for protecting cells” (UNIVERSITY OF KENTUCKY RESEARCH FOUNDATION, priority 2011, dated 2016)

Test system: RPE
Experiment: pAlu-induced RPE degeneration in wild-type mice, inhibitors given intravitreously
Format: in vivo
Details: WT mice, subretinal pAlu, inhibitor intravitreous, fundus photographs and ZO-1 flat mounts
Experimental: Subretinal injection and imaging. Subretinal injections (1 μL) were performed using a Pico-Injector (PLI-100, Harvard Apparatus). Plasmids were transfected in vivo using 10% Neuroporter (Genlantis). Fundus imaging was performed on a TRC-50 IX camera (Topcon) linked to a digital imaging system (Sony). RPE flat mounts were immunolabeled using antibodies against zonula occludens-1 (Invitrogen).
Retinal photographs of dilated mouse eyes were taken with a TRC-50 IX camera (Topcon) linked to a digital imaging system (Sony).
Human eyes fixed in 2-4% paraformaldehyde were prepared as eyecups, cryoprotected in 30% sucrose, embedded in optimal cutting temperature compound (Tissue-Tek OCT; Sakura Finetek), and cryosectioned into 10 μm sections. Depigmentation was achieved using 0.25% potassium permanganate and 0.1% oxalic acid. Immunohistochemical staining was performed with the rabbit antibody against NLRP3 (1:100, Sigma Aldrich) or rabbit antibody against Caspase-1 (prediluted, AbCam). Isotype IgG was substituted for the primary antibody to assess the specificity of the staining. Bound antibody was detected with biotin-conjugated secondary antibodies, followed by incubation with ABC reagent and visualized by Vector Blue (Vector Laboratories). Levamisole (Vector Laboratories) was used to block endogenous alkaline phosphatase activity. Slides were washed in PBS, counterstained with neutral red (Fisher Scientific), rinsed with deionized water, air dried, and then mounted in Vectamount (Vector Laboratories). Fluorescent labeling of human tissue was performed with the rabbit antibody against PYCARD (1:50, Clone N-15, Santa Cruz Biotechnology) Immunolabeling was visualized by fluorescently conjugated anti-rabbit secondary antibody (Invitrogen). Tissue autofluorescence was quenched by incubating the sections in 0.3% Sudan black (Fisher Scientific). Sections were mounted in Vectashield with DAPI (Vector Laboratories). Mouse RPE/choroid flat mounts were fixed with 4% paraformaldehyde or 100% methanol, stained with rabbit antibodies against human zonula occludens-1 (1:100, Invitrogen) and visualized with Alexa594 (Invitrogen). All images were obtained using the Leica SP-5 or Zeiss Axio Observer Z1 microscopes.
Subretinal injections (1 μL) in mice were performed using a Pico-Injector (PLI-100, Harvard Apparatus). In vivo transfection of plasmids coding for two different Alu sequences (pAlu) or empty control vector (pNull) (Bennett et al., 2008; Kaneko et al., 2011; Shaikh et al., 1997) was achieved using 10% Neuroporter (Genlantis). AAV1-BEST1-Cre (Alexander and Hauswirth, 2008) or AAV1-BEST1-GFP were injected at 1.0×10^11 pfu/mL and in vitro transcribed Alu RNA was injected at 0.3 mg/mL.
siRNAs formulated in siRNA buffer (20 mM KCL, 0.2 mM MgCl2 in HEPES buffer at pH 7.5; Dharmacon) or phosphate buffered saline (PBS; Sigma-Aldrich); the TLR4 antagonist Ultra Pure Rhodobacter sphaeroides LPS (LPS-RS, InvivoGen), a peptide inhibitor of MyD88 homodimerization IMG-2005 (IMGENEX), control inhibitor (IMGENEX), recombinant IL-18 (Medical & Biological Laboratories), neutralizing rat antibodies against mouse IL-1β (IMGENEX), neutralizing rat antibodies against mouse IL-18 (Medical & Biological Laboratories), isotype control IgGs (R&D Systems or eBioscience as appropriate), Caspase-1 inhibitor Z-WEHD-FMK (R&D Systems), Caspase control inhibitor Z-FA-FMK (R&D Systems), DPI (Enzo Life Sciences), Mito-TEMPO (Enzo Life Sciences), MitoQ and dTPP (both adsorbed to cyclodextrin and provided by M.P. Murphy, MRC Mitochondrial Biology Unit), and gp91ds-tat and scrambled gp91 ds-tat (both Anaspec), were dissolved in phosphate buffered saline (PBS; Sigma-Aldrich) or dimethyl sulfoxide (DMSO; Sigma-Aldrich), and injected into the vitreous humor in a total volume of 1 μL with a 33-gauge Exmire microsyringe (Ito Corporation). […] As a control, Luc siRNA-chol (17+2 nt) was used with identical dosages. […]

Row | Substance | pAlu-induced RPE degeneration | pAlu-induced RPE degeneration (listed as Caspase-1 peptide inhibitor)
1 | DRQIKIWFQNRRMKWKKRDVLPGT [MyD88 inhibitory peptide] | inhibited | –
2 | Z-WEHD-FMK | blocked | protects
